According to US20140005281A1, “Method of Predicting Increased Risk of Suffering Statin-induced Adverse Drug Reactions” (priority 2012, published 2014):

Assays:
[1] = Cholesterol measurement in muscle during statin treatment; assay type: in vivo, mice; conditions: after 3 days of statin treatment, 44 mg/kg daily oral gavage
Description: 800 μl of each sucrose gradient fraction were subjected to the Bligh-Dyer method for the extraction of lipids in solution. Briefly, 3.75 ml 1:2 (v/v) CHC13: MeOH were added to each sample, followed by 1.25 ml of CHCl3, and 1.25 ml of distilled water; after each addition, samples were vigorously vortexed. The organic phase of each sample was carefully extracted and dried under N2(g). Cholesterol was separated from other lipids on rhodamine 6G stained silica gel G plates with petroleum ether/diethyl ether (98:2, v/v) as the solvent system. The spots corresponding to cholesterol was extracted with petroleum ether:ethyl ether (2:3 v/v) and further assayed using the Wako cholesterol E Kit (Wako Chemicals USA, VA) according to the manufacturer's indications.

[2] = tested on: αC418W and WT mice; test: GBHA stain for end-plate (NMJ) calcium overload, tibialis anterior muscle
Excerpt: (§1) Serial cryosections of tibialis anterior muscle from statin-treated αC418W and WT mice were stained for calcium deposits (via GBHA) and also for cholinesterase to localize end-plates. Looking at these in adjacent sections, we were able to measure the percent of calcium-positive NMJs as previously described.

[3] = tested on: caspase-3; conditions: mouse, in vivo
Description: A firefly luciferase-based assay was used to measure activity of caspase 3 (Caspase-Glo® 3/7, Promega). Muscles were homogenized (25 mM HEPES pH 7.5, 0.1% (v/v) Triton X-100, 5 mM MgCl2, 2 mM 1,4-dithiothreitol, 10 mM NH4Cl, 10 mM 3-methyladenine, 74 μM antipain, 0.15 μM aprotinin, 1.3 mM EDTA, 20 μM leupeptin, and 15 μM pepstatin). After homogenization, a 20 μg protein product was added to the luminometer in triplicates for the protease luminescence assay.
as §1

## CC(C)c1c(C(=O)Nc2ccccc2)c(-c2ccccc2)c(-c2ccc(F)cc2)n1CC[C@@H](O)C[C@@H](O)CC(=O)O [atorvastatin, Atorvastatin calcium]
[1]
  total cholesterol levels: significantly lowered
[2]; WT mice, statin treatment
  NMJ calcium overload: did not cause NMJ calcium overload
[2]; αC418W mice, at 36 days of statin treatment
  NMJ calcium overload (GBHA-positive end-plates), increase over control levels: ~3 fold
[3]
  caspase-3 activity: did not show an increase
  caspase-3 activity compared with placebo-treated control group: remained unchanged
